From patent publication US7973147B2, “K04-0144 substance and a process for production thereof” (The Kitasato Institute, priority 2006, dated 2011)
≈ marks a conversion by molar mass, not a printed value. Entries after “also recorded” stand apart in the source; their conditions may differ.

Legend:
MRSA 70 = assay: MIC, agar plate dilution method; assay type: cell-based, methicillin-resistant Staphylococcus aureus; details: Staphylococcus aureus; MRSA 70; 37° C., 20 hours; read-out: MIC
Description: (§1) Assay of minimum inhibitory concentration (MIC) was performed according to the agar plate dilution method (Method of Japan Society of Chemotherapy, CHEMOTHERAPY 29, 76-79, 1981).
(§2) Test organisms used were 27 types of microorganisms including clinical isolates of methicillin-resistant Staphylococcus aureus. Each test organism was cultured in Mueller-Hinton broth (2.1% w/v) (DIFCO) at 37° C. for 20 hours, and the cultured cells were suspended to about 10^6 cell counts/ml in the same medium, then was used as the microbial suspension for inoculation. The prepared microbial suspension was smeared by using the microplanter on MHA medium (Mueller-Hinton broth 2.1% (w/v) and agar 1.5%) containing K04-0144A substance, K04-0144B substance or K04-0144C substance, each of which was subjected to two-fold stepwise dilution from 128 μg/ml. After culturing at 37° C. for 20 hours, MIC was determined by macroscopically confirming the growth of microorganisms. Vancomycin, arbekacin and linezolid were used as a comparative control.

MRSA 92-1191 = assay: MIC, agar plate dilution method; assay type: cell-based, methicillin-resistant Staphylococcus aureus; details: Staphylococcus aureus; MRSA 92-1191; 37° C., 20 hours; read-out: MIC
Description: as §1, §2

MRSA N315 IR94 HR-1 = assay: MIC, agar plate dilution method; assay type: cell-based, methicillin-resistant Staphylococcus aureus; details: Staphylococcus aureus, 20 h
Description: as §1, §2

A. calcoaceticus IFO2552 = assay: MIC, agar plate dilution method; assay type: cell-based; details: Acinetobacter calcoaceticus; A. calcoaceticus IFO2552; 37° C., 20 hours; read-out: MIC
Description: as §1, §2

C. freundii ATCC8090 = assay: MIC, agar plate dilution method; assay type: cell-based; details: Citrobacter freundii; C. freundii ATCC8090; 37° C., 20 hours; read-out: MIC
Description: as §1, §2

E. aerogenes NCTC10006 = assay: MIC, agar plate dilution method; assay type: cell-based; details: Klebsiella aerogenes; E. aerogenes NCTC10006; 37° C., 20 hours; read-out: MIC
Description: as §1, §2

E. cloacae IFO13535 = assay: MIC, agar plate dilution method; assay type: cell-based; details: Enterobacter cloacae; E. cloacae IFO13535; 37° C., 20 hours; read-out: MIC
Description: as §1, §2

E. coli NIHJ JC-2 = assay: MIC, agar plate dilution method; assay type: cell-based; details: Escherichia coli, NIHJJC2; E. coli NIHJ JC-2; 37° C., 20 hours; read-out: MIC
Description: as §1, §2

[1] = system: E. facecalis NTCT12201(VanA); assay: MIC, agar plate dilution method; assay type: cell-based; details: E. facecalis NTCT12201(VanA); 37° C., 20 hours; read-out: MIC
Description: as §1, §2

E. faecalis ATCC21212 = assay: MIC, agar plate dilution method; assay type: cell-based; details: Enterococcus faecalis; E. faecalis ATCC21212; 37° C., 20 hours; read-out: MIC
Description: as §1, §2

[2] = system: E. faecium NTCT12203(VanA); assay: MIC, agar plate dilution method; assay type: cell-based; details: Enterococcus faecium; E. faecium NTCT12203(VanA); 37° C., 20 hours; read-out: MIC
Description: as §1, §2

K. pneumoniae NCTN9632 = assay: MIC, agar plate dilution method; assay type: cell-based; details: Klebsiella pneumoniae; K. pneumoniae NCTN9632; 37° C., 20 hours; read-out: MIC
Description: as §1, §2

M. luteus ATCC9341 = assay: MIC, agar plate dilution method; assay type: cell-based; details: Micrococcus luteus; M. luteus ATCC9341; 37° C., 20 hours; read-out: MIC
Description: as §1, §2

M. morganii IID Kono = assay: MIC, agar plate dilution method; assay type: cell-based; details: Morganella morganii; M. morganii IID Kono; 37° C., 20 hours; read-out: MIC
Description: as §1, §2

P. aeruginosa 46001 = assay: MIC, agar plate dilution method; assay type: cell-based; details: Pseudomonas aeruginosa; P. aeruginosa 46001; 37° C., 20 hours; read-out: MIC
Description: as §1, §2

P. aeruginosa E-2 = assay: MIC, agar plate dilution method; assay type: cell-based; details: Pseudomonas aeruginosa, E2; P. aeruginosa E-2; 37° C., 20 hours; read-out: MIC
Description: as §1, §2

P. mirabilis IFO3849 = assay: MIC, agar plate dilution method; assay type: cell-based; details: Proteus mirabilis; P. mirabilis IFO3849; 37° C., 20 hours; read-out: MIC
Description: as §1, §2

P. vulgaris OX-19 = assay: MIC, agar plate dilution method; assay type: cell-based; details: Proteus vulgaris, OX19; P. vulgaris OX-19; 37° C., 20 hours; read-out: MIC
Description: as §1, §2

S. aureus 8325(pEP2104) = assay: MIC, agar plate dilution method; assay type: cell-based; details: Staphylococcus aureus, 20 h
Description: as §1, §2

S. aureus 8325(pMS97) = assay: MIC, agar plate dilution method; assay type: cell-based; details: Staphylococcus aureus, 20 h
Description: as §1, §2

S. aureus FDA209P = assay: MIC, agar plate dilution method; assay type: cell-based; details: Staphylococcus aureus; S. aureus FDA209P; 37° C., 20 hours; read-out: MIC
Description: as §1, §2

S. aureus ISP217 = assay: MIC, agar plate dilution method; assay type: cell-based; details: Staphylococcus aureus; S. aureus ISP217; 37° C., 20 hours; read-out: MIC
Description: as §1, §2

S. aureus ISP447 = assay: MIC, agar plate dilution method; assay type: cell-based; details: Staphylococcus aureus; S. aureus ISP447; 37° C., 20 hours; read-out: MIC
Description: as §1, §2

S. aureus Smith = assay: MIC, agar plate dilution method; assay type: cell-based; details: Staphylococcus aureus; S. aureus Smith; 37° C., 20 hours; read-out: MIC
Description: as §1, §2

S. epidermidis IFO12648 = assay: MIC, agar plate dilution method; assay type: cell-based; details: Staphylococcus epidermidis; S. epidermidis IFO12648; 37° C., 20 hours; read-out: MIC
Description: as §1, §2

S. marcescens IFO12648 = assay: MIC, agar plate dilution method; assay type: cell-based; details: Serratia marcescens; S. marcescens IFO12648; 37° C., 20 hours; read-out: MIC
Description: as §1, §2

MRSA N315 IR94 = assay: MIC, agar plate dilution method; assay type: cell-based, methicillin-resistant Staphylococcus aureus; details: Staphylococcus aureus, 20 h
Description: as §1, §2

Solubility in solvent = assay type: physicochemical; details: listed as K04-0144C substance

Row | Compound | MIC (MRSA 70) | MIC (MRSA 92-1191) | MIC (MRSA N315 IR94 HR-1) | MIC (A. calcoaceticus IFO2552) | MIC (C. freundii ATCC8090) | MIC (E. aerogenes NCTC10006) | MIC (E. cloacae IFO13535) | MIC (E. coli NIHJ JC-2) | MIC [1] | MIC (E. faecalis ATCC21212) | MIC [2] | MIC (K. pneumoniae NCTN9632) | MIC (M. luteus ATCC9341) | MIC (M. morganii IID Kono) | MIC (P. aeruginosa 46001) | MIC (P. aeruginosa E-2) | MIC (P. mirabilis IFO3849) | MIC (P. vulgaris OX-19) | MIC (S. aureus 8325(pEP2104)) | MIC (S. aureus 8325(pMS97)) | further results
1 | NCC[C@H](O)C(=O)N[C@@H]1C[C@H](N)[C@@H](O[C@H]2O[C@H](CN)CC[C@H]2N)[C@H](O)[C@H]1O[C@H]1O[C@H](CO)[C@@H](O)[C@H](N)[C@H]1O [arbekacin, reference compound] | 0.5 µg/mL (≈ 0.905 µM) | 0.5 µg/mL (≈ 0.905 µM) | 1 µg/mL (≈ 1.81 µM) | ≤ 0.25 µg/mL | 0.5 µg/mL (≈ 0.905 µM) | ≤ 0.25 µg/mL | 0.5 µg/mL (≈ 0.905 µM) | > 32 µg/mL | > 32 µg/mL | > 32 µg/mL | 8 µg/mL (≈ 14.5 µM) | ≤ 0.25 µg/mL | ≤ 0.25 µg/mL | 0.5 µg/mL (≈ 0.905 µM) | 1 µg/mL (≈ 1.81 µM) | 4 µg/mL (≈ 7.24 µM) | 2 µg/mL (≈ 3.62 µM) | 2 µg/mL (≈ 3.62 µM) | ≤ 0.25 µg/mL | ≤ 0.25 µg/mL | MIC (S. aureus FDA209P): ≤ 0.25 µg/mL; MIC (S. aureus ISP217): ≤ 0.25 µg/mL; MIC (S. aureus ISP447): ≤ 0.25 µg/mL; MIC (S. aureus Smith): ≤ 0.25 µg/mL; MIC (S. epidermidis IFO12648): ≤ 0.25 µg/mL; MIC (S. marcescens IFO12648): 1 µg/mL (≈ 1.81 µM)
2 | C=C(C/C=C(\C)CCC=C(C)C)CCC(C)(C)/C=C/CC/C(C)=C\COC(COP(=O)(O)OC1OC(C(N)=O)C(C)(O)C(OC(N)=O)C1OC1OC(CO)C(OC2OC(C)C(OC3OC(C(N)=O)C(O)C(O)C3O)C(O)C2NC(C)=O)C(O)C1NC(C)=O)C(=O)O (stereo not drawn) [K04-0144C] | ≤ 0.25 µg/mL | 0.5 µg/mL (≈ 0.378 µM) | ≤ 0.25 µg/mL | 8 µg/mL (≈ 6.04 µM) | 64 µg/mL (≈ 48.3 µM) | 32 µg/mL (≈ 24.2 µM) | 32 µg/mL (≈ 24.2 µM) | 8 µg/mL (≈ 6.04 µM) | 0.5 µg/mL (≈ 0.378 µM) | 0.5 µg/mL (≈ 0.378 µM) | 64 µg/mL (≈ 48.3 µM) | 8 µg/mL (≈ 6.04 µM) | > 128 µg/mL | 32 µg/mL (≈ 24.2 µM) | 32 µg/mL (≈ 24.2 µM) | 32 µg/mL (≈ 24.2 µM) | 8 µg/mL (≈ 6.04 µM) | 4 µg/mL (≈ 3.02 µM) | 0.5 µg/mL (≈ 0.378 µM) | 0.5 µg/mL (≈ 0.378 µM) | MIC (MRSA N315 IR94): ≤ 0.25 µg/mL; MIC (S. aureus FDA209P): 1 µg/mL (≈ 0.755 µM); MIC (S. aureus ISP217): ≤ 0.25 µg/mL; MIC (S. aureus ISP447): ≤ 0.25 µg/mL; MIC (S. aureus Smith): 1 µg/mL (≈ 0.755 µM); MIC (S. epidermidis IFO12648): 1 µg/mL (≈ 0.755 µM); MIC (S. marcescens IFO12648): 32 µg/mL (≈ 24.2 µM); Solubility in solvent (Solubility in solvent): Soluble in water, methanol and dimethyl sulfoxide; also recorded: Insoluble in acetone, chloroform and n-hexane
